Several values for one entry are separate records, joined by “and”; a condition that tells them apart may be missing. Equal entries are not always repeated. Where two headings read alike, the source gives them in different places.
Legend:
[1] = Inhibition of linoleic acid peroxidation induced by AAPH; settings: anti-lipid peroxidation of linoleic acid, 100 μM
[2] = biological target: T1, soybean lipoxygenase (isozyme LOX-1) (Glycine max, UniProt P08170); test: Soybean lipoxygenase inhibition study; type: biochemical; settings: for inhibition at 100 µM: read-out: LOX (% Inhibition at 100 μM) ± SEM, soybean lipoxygenase, 100 μM
T1 construct: purchased Sigma Chemical, Co. (St. Louis, MO, USA)
T1 sequence (P08170 1-839): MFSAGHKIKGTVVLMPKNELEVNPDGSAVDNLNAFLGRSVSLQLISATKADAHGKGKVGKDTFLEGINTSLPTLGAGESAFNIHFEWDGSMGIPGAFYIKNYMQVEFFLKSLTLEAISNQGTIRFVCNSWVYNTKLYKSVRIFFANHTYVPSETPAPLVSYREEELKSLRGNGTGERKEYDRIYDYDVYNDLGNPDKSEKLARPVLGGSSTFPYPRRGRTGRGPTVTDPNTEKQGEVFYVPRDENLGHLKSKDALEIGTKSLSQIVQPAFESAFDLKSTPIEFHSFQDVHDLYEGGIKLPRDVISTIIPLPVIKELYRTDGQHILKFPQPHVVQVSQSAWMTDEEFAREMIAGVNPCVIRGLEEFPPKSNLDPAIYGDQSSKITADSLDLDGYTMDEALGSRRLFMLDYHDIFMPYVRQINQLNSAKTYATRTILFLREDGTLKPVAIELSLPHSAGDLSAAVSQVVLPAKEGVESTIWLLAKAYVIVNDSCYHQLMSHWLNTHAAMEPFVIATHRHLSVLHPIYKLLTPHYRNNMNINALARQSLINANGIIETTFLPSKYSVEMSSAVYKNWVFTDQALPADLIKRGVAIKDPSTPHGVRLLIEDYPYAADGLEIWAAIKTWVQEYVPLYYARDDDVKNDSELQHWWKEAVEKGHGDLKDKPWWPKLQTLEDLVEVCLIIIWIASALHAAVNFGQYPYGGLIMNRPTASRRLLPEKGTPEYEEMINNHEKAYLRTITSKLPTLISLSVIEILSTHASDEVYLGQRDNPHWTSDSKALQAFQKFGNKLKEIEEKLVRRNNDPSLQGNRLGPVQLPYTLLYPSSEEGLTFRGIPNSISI

[3] = Experimental lipophilicity as RM values by RPTLC; type: physicochemical; settings: silica gel impregnated with liquid paraffin, methanol/water 77/23, 24 °C
[4] = biological target: T2, eel AChE (Electrophorus electricus, UniProt O42275); test: biochemical; settings: for inhibition at 100 µM: n.a. = no activity under the experimental conditions, read-out: AChE (% Inhibition at 100 μM) ± SEM; for IC50: acetylthiocholine substrate, read-out: AChE IC50 (μM) ± SEM
T2 construct: purchased Sigma-Aldrich Type VI-S
T2 sequence (O42275 24-633): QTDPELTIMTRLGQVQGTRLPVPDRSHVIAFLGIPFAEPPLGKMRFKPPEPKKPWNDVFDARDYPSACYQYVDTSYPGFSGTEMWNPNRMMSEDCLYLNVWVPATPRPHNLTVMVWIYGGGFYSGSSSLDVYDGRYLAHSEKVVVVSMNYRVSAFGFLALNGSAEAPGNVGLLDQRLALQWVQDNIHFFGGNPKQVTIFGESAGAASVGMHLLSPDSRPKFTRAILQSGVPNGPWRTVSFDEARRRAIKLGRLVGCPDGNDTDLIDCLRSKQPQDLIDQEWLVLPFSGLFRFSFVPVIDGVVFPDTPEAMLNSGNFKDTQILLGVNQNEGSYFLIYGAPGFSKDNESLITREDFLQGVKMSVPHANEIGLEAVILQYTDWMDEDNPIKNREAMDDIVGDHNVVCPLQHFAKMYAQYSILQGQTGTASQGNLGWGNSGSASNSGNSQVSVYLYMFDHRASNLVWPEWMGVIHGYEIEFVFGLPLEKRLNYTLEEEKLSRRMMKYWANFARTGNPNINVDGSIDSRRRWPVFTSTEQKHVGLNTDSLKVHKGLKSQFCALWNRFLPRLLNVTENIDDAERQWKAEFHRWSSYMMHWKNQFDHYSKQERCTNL

[5] = biological target: T1, soybean lipoxygenase (isozyme LOX-1); settings: previously published, cited from earlier work; for IC50: read-out: LOX IC50 (μM) ± SEM
[6] = biological target: T3, bovine COX-2 (Bos taurus, UniProt O62698); test: biochemical; type: biochemical
T3 sequence (O62698 18-604): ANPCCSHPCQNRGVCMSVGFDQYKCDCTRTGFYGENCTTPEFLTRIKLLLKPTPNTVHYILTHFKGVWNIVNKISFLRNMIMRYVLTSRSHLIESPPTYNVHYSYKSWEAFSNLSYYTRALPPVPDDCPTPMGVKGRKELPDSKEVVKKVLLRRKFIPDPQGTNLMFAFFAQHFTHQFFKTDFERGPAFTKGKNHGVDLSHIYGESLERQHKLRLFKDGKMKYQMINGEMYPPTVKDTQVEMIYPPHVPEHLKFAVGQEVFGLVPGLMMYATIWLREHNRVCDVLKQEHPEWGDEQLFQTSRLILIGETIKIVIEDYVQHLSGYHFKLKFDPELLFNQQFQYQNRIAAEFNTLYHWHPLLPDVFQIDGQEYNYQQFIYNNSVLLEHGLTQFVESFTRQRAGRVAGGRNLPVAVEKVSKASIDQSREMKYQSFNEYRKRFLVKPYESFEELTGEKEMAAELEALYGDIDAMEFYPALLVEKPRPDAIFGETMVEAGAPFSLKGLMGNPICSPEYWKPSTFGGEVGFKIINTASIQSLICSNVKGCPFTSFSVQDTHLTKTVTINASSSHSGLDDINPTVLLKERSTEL

[7] = soybean lipoxygenase, sodium linoleate substrate, read-out: LOX IC50 (μM) ± SEM

Compound | AAPH Inhibition (%, at 100 μΜ) [1] | RM ± S.D. [3] | IC50 [2, 7] | inhibition at 100 µM [4] | further results
O=C(O)/C=C/c1cccc2ccccc12 [2b] | 78 ± 0.7% | −0.576 ± 0.077 |  |  | IC50 [2]: 27.5 µM
S=C1/C(=C/c2ccccc2)CNC/C1=C\c1ccccc1 [1o, (3E,5E)-3,5-dibenzylidenepiperidine-4-thione] | 8 ± 0.01% | −0.848 ± 0.19 | 10 µM |  | inhibition at 100 µM [2]: < 10%
O=C1/C(=C/c2ccc(F)cc2)CN(C(=O)C=Cc2ccccc2)C/C1=C\c1ccc(F)cc1 [3d, (3E,5E)-1-cinnamoyl-3,5-bis(4-fluorobenzylidene)piperidin-4-one] | 84 ± 1.7% | 0.237 ± 0.06 | 63.5 µM | 31% | 
O=C1/C(=C/c2ccc3[nH]ccc3c2)CNC/C1=C\c1ccc2[nH]ccc2c1 [1d, (3E,5E)-3,5-bis((1H-indol-5-yl)methylene)piperidin-4-one] |  |  |  |  | IC50 [5]: 410 µM
COc1cc(/C=C/C(=O)CC(=O)/C=C/c2ccc(O)c(OC)c2)ccc1O [Curcumin, reference compound] |  | 0.175 ± 0.029 |  |  | inhibition at 100 µM [2]: 38%
O=C1/C(=C/c2cccc3ccccc23)CN(C(=O)/C=C/c2ccc(O)c(O)c2)C/C1=C\c1cccc2ccccc12 [3h, (3E,5E)-1-((E)-3-(3,4-dihydroxyphenyl)acryloyl)-3,5-bis(naphthalen-1-ylmethylene)piperidin-4-one] | 93 ± 2.2% | −0.657 and −0.657 ± 0.013 | 34 µM | 14 to 34% | 
O=C1/C(=C/c2ccccc2)CN(C(=O)C=Cc2ccccc2)C/C1=C\c1ccccc1 [3g, (3E,5E)-3,5-dibenzylidene-1-cinnamoylpiperidin-4-one] | 53 ± 1.6% | 0.235 ± 0.039 |  |  | IC50 [2]: 82 µM; IC50 [4]: 100 µM
O=C1/C(=C/c2cccc3ccccc23)COC/C1=C\c1cccc2ccccc12 [1m, (3E,5E)-3,5-bis(naphthalen-1-ylmethylene)dihydro-2H-pyran-4(3H)-one] | 100 ± 2.8% | 0.577 ± 0.027 | 50.5 µM | 32% | 
O=C(O)/C=C/c1ccc(O)c(O)c1 [2c, caffeic acid] | 80 ± 2.2% |  |  |  | COX-2 (% Inhibition at 100 μM) ± SEM ([6]; bovine COX-2, 100 μM, n.a. = no activity under the experimental conditions): presented anti-COX-2 activity; IC50 ([6]; bovine COX-2, read-out: COX-2 IC50 (μM) ± SEM): 57.5 µM
O=C1/C(=C/c2cccc3ccccc23)CC/C1=C\c1cccc2ccccc12 [1k, (2E,5E)-2,5-bis(naphthalen-1-ylmethylene)cyclopentanone] | 100 ± 2.2% | 0.872 ± 0.039 | 14 µM | 36% | 
O=C1/C(=C/c2cccc3ccccc23)CN(C(=O)C=Cc2ccccc2)C/C1=C\c1cccc2ccccc12 [3a, (3E,5E)-1-cinnamoyl-3,5-bis(naphthalen-1-ylmethylene)piperidin-4-one] | 91 ± 1.9% | 0.599 ± 0.024 | 50 µM |  | IC50 [4]: 85 µM
O=C1/C(=C/c2cccc3ccccc23)CNC/C1=C\c1cccc2ccccc12 [1a, (3E,5E)-3,5-bis(naphthalen-1-ylmethylene)piperidin-4-one] |  |  |  |  | IC50 [5]: 37 µM
Cc1c(C)c2c(c(C)c1O)CCC(C)(C(=O)O)O2 (stereo not shown) [Trolox, reference compound] | 92 ± 2.1% |  |  |  | 
O=C1/C(=C/c2ccccc2)COC/C1=C\c1ccccc1 [1l, (3E,5E)-3,5-dibenzylidenedihydro-2H-pyran-4(3H)-one] | 42 ± 1.5% |  |  | 25% | inhibition at 100 µM [2]: < 10%
O=C1/C(=C/c2cccs2)CNC/C1=C\c1cccs1 [1b, (3E,5E)-3,5-bis(thiophen-2-ylmethylene)piperidin-4-one] |  |  |  |  | IC50 [5]: 330 µM
O=C1/C(=C/c2cccs2)CN(C(=O)/C=C/c2cccc3ccccc23)C/C1=C\c1cccs1 [3e, (3E,5E)-1-((E)-3-(naphthalen-1-yl)acryloyl)-3,5-bis(thiophen-2-ylmethylene)piperidin-4-one] | 91 ± 2.5% | 0.514 ± 0.039 | 52 µM |  | inhibition at 100 µM ([6]; bovine COX-2, 100 μM, n.a. = no activity under the experimental conditions, read-out: COX-2 (% Inhibition at 100 μM) ± SEM): 19%; IC50 [4]: 70 µM
S=C1/C(=C/c2cccc3ccccc23)CNC/C1=C\c1cccc2ccccc12 [1p, (3E,5E)-3,5-bis(naphthalen-1-ylmethylene)piperidine-4-thione] | 100 ± 3.3% | −0.679 ± 0.035 | 35 µM | 26.6% | 
O=C1/C(=C/c2c[nH]c3ccccc23)CNC/C1=C\c1c[nH]c2ccccc12 [1c, (3E,5E)-3,5-bis((1H-indol-3-yl)methylene)piperidin-4-one] |  |  |  |  | IC50 [5]: 380 µM
(3E,5E)-3,5-bis((1H-imidazol-2-yl)methylene)piperidin-4-one [1f] |  |  |  |  | LOX (% Inhibition at 100 μM) ± SEM [5]: 36% ± 0.9
O=C(O)/C=C/c1ccccc1 [2a] | 78 ±1.6% | −0.485 ± 0.044 |  | 4.6% | 
O=C1/C(=C/c2cc3ccccc3o2)CNC/C1=C\c1cc2ccccc2o1 [1q, (3E,5E)-3,5-bis(benzofuran-2-ylmethylene)piperidin-4-one] | 13 ± 0.2% | −0.019 ± 0.143 |  | 16.5% | inhibition at 100 µM [2]: 3%
O=C1/C(=C/c2cccc3ccccc23)CN(C(=O)/C=C/c2cccc3ccccc23)C/C1=C\c1cccc2ccccc12 [3c, (3E,5E)-1-((E)-3-(naphthalen-1-yl)acryloyl)-3,5-bis(naphthalen-1-ylmethylene)piperidin-4-one] | 88 ± 2.0% | −0.658 and −0.658 ± 0.061 | 37.5 µM | 29% | 
O=C1/C(=C/c2ccc(F)cc2)CN(C(=O)/C=C/c2cccc3ccccc23)C/C1=C\c1ccc(F)cc1 [3f, (3E,5E)-3,5-bis(4-fluorobenzylidene)-1-((E)-3-(naphthalen-1-yl)acryloyl)piperidin-4-one] | 90 ± 2.4% | 0.564 ± 0.045 | 55 µM | 24% | 
O=C1/C(=C/c2ccc(F)cc2)CNC/C1=C\c1ccc(F)cc1 [1j, (3E,5E)-3,5-bis(4-fluorobenzylidene)piperidin-4-one] | 36.2 ± 1.8% |  |  |  | 
O=C1/C(=C/c2ccccc2)CNC/C1=C\c1ccccc1 [1g, (3E,5E)-3,5-dibenzylidenepiperidin-4-one] |  |  |  |  | LOX (% Inhibition at 100 μM) ± SEM [5]: 8% ± 0.2
O=C1/C(=C/c2cccc3ccccc23)CSC/C1=C\c1cccc2ccccc12 [1n, (3Z,5Z)-3,5-bis(naphthalen-1-ylmethylene)dihydro-2H-thiopyran-4(3H)-one] | 100 ± 2.5% | 0.131 ± 0.142 | 57.5 µM | 18% | 
O=C1/C(=C/c2ccccc2)CN(C(=O)/C=C/c2cccc3ccccc23)C/C1=C\c1ccccc1 [3b, (3E,5E)-3,5-dibenzylidene-1-((E)-3-(naphthalen-1-yl)acryloyl)piperidin-4-one] | 90 ± 2.8% | 0.509 ± 0.062 | 55 µM | 17% | 

Reference: paper PMC7662280 (Molecules, 2020)
